# Test results: US5470877A, “Uses of perillic acid methyl ester” (Wisconsin Alumni Research Foundation, priority 1994, dated 1995)
# pIC50: −log10 of the molar value.
# Experiments:
# [1] = test system: 21-26 kDa proteins; assay: Protein isoprenylation inhibition in NIH3T3 cells (SDS-PAGE fluorography); type: cell-based, mouse
# Description: "Isoprenylation" is the addition of a multiple of the 5 carbon isoprene unit to a protein. Our experiments in isoprenylation are reported at Crowell, et al. 1991, J. Biol. Chem. 266:17679-17685. To test whether a specific monoterpene affects isoprenylation of proteins in cells, […] were incubated with a radioactive isoprene precursor and 0-5 mM of the test monoterpene and then subjected to SDS-PAGE. Because they carried a radioactive label, isoprenylated proteins were visualized by fluorography. As a control, cells were incubated without the monoterpene.
# Cells were harvested after trypsin treatment, washed twice with phosphate-buffered saline, suspended in electrophoresis sample buffer (Laemmli, U.K., 1970, Nature 227:680-685), and either analyzed immediately or stored at -20° C. Whole cell extracts were analyzed by SDS-PAGE on 16-cm×18-cm×0.75-mm gels by the method of Laemmli (supra). The acrylamide concentrations were 5% for the stacking gel and 12% for the separating gel. Gels were stained with Coomassie Brilliant Blue, equilibrated for 20 min in Amplify (Amersham Corp.) fluorographic reagent, dried under vacuum at 65° C., and exposed to preflashed Kodak X-Omat AR film as described by Laskey and Mills (1975, Eur. J. Biochem, 56:335-341). Some fluorograms were analyzed further by densitometry. Where indicated, gels were sliced, dissolved at 50° C. for 3 hours in 0.5 ml of water+0.5 ml of Solvable (Amersham), and then analyzed by scintillation spectrometry in 10 ml of Atom light (Amersham) mixture. Protein content was measured by the method of Lowry, et al. (1951, J. Biol. Chem. 193:265-275).
# FIG. 1 depicts the structures of certain monoterpenes.
# The degree of isoprenylation was evaluated by the amount of labeled protein present in the 21-26 kDa range, as evidenced by fluorography.
# [2] = test system: HT29 cells; assay: Inhibition of HT29 colon adenocarcinoma cell growth/proliferation; type: cell-based, human
# Description: (§1) We examined the effect of several of the terpenes on certain types of cell growth. […] Additionally, growth of HT29 (human colon adenocarcinoma) cells was inhibited by 80% by 1 mM perillyl alcohol.
# [3] = test system: M600B cells; assay: M600B cell growth inhibition (FIG. 4); type: cell-based; conditions: M600B (human) cells
# Description: NIH3T3 (mouse embryo) cells were obtained from the American Type Culture Collection and were grown in Dulbecco's modified Eagle's medium supplemented with 10% calf serum. M600B immortalized human mammary epithelial cells (Stampfer, M.R., 1985, J. Tissue Culture Methods 9:107-115) were, obtained from Dr. Martha Stampfer and were grown in supplemented HCDB 170 medium (Hammond, et al. (1984) Proc. Natl. Acad. Sci U.S.A. 81:5435-5439), as described previously (Stampfer, et al. (1985) Proc. Natl. Acad. Sci U.S.A. 82:2394-2398; Eldridge, et al. (1989) Cancer Res. 49:4326-4331).
# All cells were maintained in 100-mm dishes at 37° C. in a humidified 5% CO2 atmosphere. Viable cells were distinguished from nonviable cells by counting azure II/methylene blue-stained colonies 10 days after the cells were plated at a density of 100 cells per dish. Trypan blue exclusion was measured by incubating cells for 1 min with one drop of trypan blue per 10 ml of cells. Viable (colorless) and nonviable (blue) cells were then counted on a hemocytometer.
# as §1
# [4] = Acute oral toxicity in rats; type: in vivo, Wistar-Furth rat; conditions: 1:1 sesame oil
# Description: When POH was given in an acute manner (a single oral dose, 1:1 mix with sesame oil, for 5 days), the following was observed: After 300 mg total POH dose, 2 out of 5 rats died within 24 hours. After a 200 mg total POH dose, 2 out of 5 rats died within 24 hours. After a 100 mg total POH dose, 5 out of 5 rats tolerated 5 days with weight loss.
# [5] = Effect of dietary perillyl alcohol on serum cholesterol and lipids in rats; type: in vivo, Wistar-Furth rat
# From the text: Twenty-one female, six-weeks-old, Wistar-Furth rats were divided into three different diet groups of seven rats each. One group was fed a control diet, one group was fed a 1% perillyl alcohol diet, and one group was fed a 2% perillyl alcohol diet. Rats from each diet group were matched into pair feeding groups.
# Rats in the control group were pair fed against rats in the 2% POH diet group. Rats in the 1% POH diet group were allowed to eat as much as they wanted. After one month, rats in the 1% POH diet group were also pair fed against rats in 2% POH group. After two months of feeding, rats in all groups were allowed to eat as much as they wanted. The rats were allowed to eat as much as they wanted because the diurnal rhythm of HMGCoA reductase activity might be related to food intake.
# The rats' body weights were measured twice a week. Perillyl alcohol diets were made once a week and replaced daily.
# […] About 1 ml blood was taken from each rat each time and collected in heparin (SIGMA) coated tube. For CoQ analysis, 0.5 ml blood was added to the CoQ6 standard. For cholesterol analysis the blood were spun down at 3,000 rpm for 10 minutes and the plasma were taken. By three months, all rats were killed.
# Total cholesterol, HDL cholesterol and triglyceride levels in the rats' plasma were measured using diagnostic kits from SIGMA according to manufacturer's instructions. LDL cholesterol levels were calculated by Friedewald's equation. […]
# [6] = test system: HT29 cells; assay: Protein isoprenylation in HT29 cells; type: cell-based, human
smiles,measurement,setting,value
C=C(C)[C@@H]1CC=C(CO)CC1 [perillyl alcohol],ability to inhibit isoprenylation within test panel,"[1]; 1 mM, 21-26 kDa range",greatest ability to inhibit isoprenylation
same,inhibition of isoprenylation in all cases examined,[1]; all cell types examined,inhibition of isoprenylation
same,"Rank order, inhibition of HT-29 tumor cell proliferation","[2]; 1 = greatest inhibition, 5 = least inhibition",1
same,pIC50,"[2]; Homo sapiens, HT-29, read-out: IC50 HT29 tumor cell proliferation",4.30
same,inhibition at 1000 µM,"[2]; Homo sapiens, HT-29, read-out: growth inhibition of HT29 cells",80%
same,HT29 cell growth,[2]; colon adenocarcinoma cells,regression of cell growth
same,inhibition of cell growth,[3],significantly inhibited cell growth in a dose-dependent manner
same,rats that tolerated 5 days with weight loss,[4]; 100 mg total POH dose,5 out of 5
same,rats died within 24 hours,[4]; 200 mg total POH dose,2 out of 5
same,rats died within 24 hours,[4]; 300 mg total POH dose,2 out of 5
same,Body Weight,[5]; 1% POH diet,207 ± 3 g
same,Heart Weight,[5]; 1% POH diet,0.57 ± 0.05 g
same,Liver Weight,[5]; 1% POH diet,6.1 ± 0.3 g
same,HDL Cholesterol,"[5]; 1% POH diet, Kill",37.6 ± 3.8 mg/dL
same,Total Cholesterol,"[5]; 1% POH diet, Kill",47.7 ± 4.3 mg/dL
same,Triglyceride,"[5]; 1% POH diet, Kill",29.8 ± 8.9 mg/dL
same,LDL Cholesterol,"[5]; 1% POH diet, Kill, Friedewald's equation",4.1 ± 2.4 mg/dL
same,HDL Cholesterol,"[5]; 1% POH diet, WK3",31.7 ± 2.3 mg/dL
same,Total Cholesterol,"[5]; 1% POH diet, WK3",45.9 ± 4.2 mg/dL
same,Triglyceride,"[5]; 1% POH diet, WK3",20.8 ± 5.2 mg/dL
same,LDL Cholesterol,"[5]; 1% POH diet, WK3, Friedewald's equation",10.1 ± 3.1 mg/dL
same,HDL Cholesterol,"[5]; 1% POH diet, WK6",33.1 ± 2.2 mg/dL
same,Total Cholesterol,"[5]; 1% POH diet, WK6",41.0 ± 3.0 mg/dL
same,Triglyceride,"[5]; 1% POH diet, WK6",29.5 ± 5.7 mg/dL
same,LDL Cholesterol,"[5]; 1% POH diet, WK6, Friedewald's equation",2.0 ± 1.4 mg/dL
same,HDL Cholesterol,"[5]; 1% POH diet, WK9",31.5 ± 2.6 mg/dL
same,Total Cholesterol,"[5]; 1% POH diet, WK9",43.2 ± 4.9 mg/dL
same,Triglyceride,"[5]; 1% POH diet, WK9",28.7 ± 5.7 mg/dL
same,LDL Cholesterol,"[5]; 1% POH diet, WK9, Friedewald's equation",6.0 ± 4.0 mg/dL
same,Body Weight,[5]; 2% POH diet,198 ± 6 g
same,Heart Weight,[5]; 2% POH diet,0.57 ± 0.05 g
same,Liver Weight,[5]; 2% POH diet,6.2 ± 0.5 g
same,HDL Cholesterol,"[5]; 2% POH diet, Kill",39.8 ± 4.0 mg/dL
same,Total Cholesterol,"[5]; 2% POH diet, Kill",52.8 ± 6.8 mg/dL
same,Triglyceride,"[5]; 2% POH diet, Kill",33.8 ± 14.9 mg/dL
same,LDL Cholesterol,"[5]; 2% POH diet, Kill, Friedewald's equation",6.2 ± 1.8 mg/dL
same,HDL Cholesterol,"[5]; 2% POH diet, WK3",31.4 ± 1.6 mg/dL
same,Total Cholesterol,"[5]; 2% POH diet, WK3",44.2 ± 3.7 mg/dL
same,Triglyceride,"[5]; 2% POH diet, WK3",17.2 ± 5.3 mg/dL
same,LDL Cholesterol,"[5]; 2% POH diet, WK3, Friedewald's equation",9.4 ± 3.0 mg/dL
same,HDL Cholesterol,"[5]; 2% POH diet, WK6",33.5 ± 3.6 mg/dL
same,Total Cholesterol,"[5]; 2% POH diet, WK6",41.2 ± 5.0 mg/dL
same,Triglyceride,"[5]; 2% POH diet, WK6",21.1 ± 5.7 mg/dL
same,LDL Cholesterol,"[5]; 2% POH diet, WK6, Friedewald's equation",3.4 ± 2.2 mg/dL
same,HDL Cholesterol,"[5]; 2% POH diet, WK9",30.7 ± 2.9 mg/dL
same,Total Cholesterol,"[5]; 2% POH diet, WK9",40.7 ± 3.3 mg/dL
same,Triglyceride,"[5]; 2% POH diet, WK9",18.4 ± 2.9 mg/dL
same,LDL Cholesterol,"[5]; 2% POH diet, WK9, Friedewald's equation",6.4 ± 1.2 mg/dL
same,LDL level versus HDL level,[5]; after 6 weeks of treatment,LDL level is reduced much more than the HDL level
same,Triglyceride levels,[5]; after 6 weeks of treatment,dramatically reduced
same,total cholesterol level,[5]; after 6 weeks of treatment,reduced
same,differential isoprenylation in HT29,[6],differential isoprenylation
